Assay results taken from ChEMBL document CHEMBL5724914, “Linking interpersonal differences in gut microbiota composition and drug biotransformation activity” (2024).

Legend:
[1] = human gut metagenome, 24 h, 2 µM
[2] = The drug is tested on WLS-310 corresponding to human gut metagenome with ENA study accession number: PRJEB37062 and ENA sample accession number: ERS12561785 for biotransformation under anaerobic condition. The drug concentrations were measured over 9 timepoints collected between 0 and 24 hours of incubation by liquid-chromatography-coupled mass spectrometry (LC–MS); conditions: 2 µM
[3] = human gut metagenome, 24 h, 2 µM; remark: listed apart in the source
[4] = The drug is tested on WLS-039 corresponding to human gut metagenome with ENA study accession number: PRJEB37062 and ENA sample accession number: ERS12561746 for biotransformation under anaerobic condition. The drug concentrations were measured over 9 timepoints collected between 0 and 24 hours of incubation by liquid-chromatography-coupled mass spectrometry (LC–MS); conditions: 2 µM
[5] = human gut metagenome, 24 h, 2 µM; remark: listed apart in the source
[6] = The drug is tested on WLS-007 corresponding to human gut metagenome with ENA study accession number: PRJEB37062 and ENA sample accession number: ERS12561742 for biotransformation under anaerobic condition. The drug concentrations were measured over 9 timepoints collected between 0 and 24 hours of incubation by liquid-chromatography-coupled mass spectrometry (LC–MS); conditions: 2 µM
[7] = The drug is tested on Z-008 corresponding to metagenome with ENA study accession number: PRJEB37062 and ENA sample accession number: ERS12561808 for biotransformation under anaerobic condition. The drug concentrations were measured over 9 timepoints collected between 0 and 24 hours of incubation by liquid-chromatography-coupled mass spectrometry (LC–MS); conditions: 2 µM
[8] = human gut metagenome, 24 h, 2 µM; remark: listed apart in the source
[9] = The drug is tested on Z-023 corresponding to metagenome with ENA study accession number: PRJEB37062 and ENA sample accession number: ERS12561822 for biotransformation under anaerobic condition. The drug concentrations were measured over 9 timepoints collected between 0 and 24 hours of incubation by liquid-chromatography-coupled mass spectrometry (LC–MS); conditions: 2 µM
[10] = The drug is tested on Z-013 corresponding to rabbit gut metagenome with ENA study accession number: PRJEB37062 and ENA sample accession number: ERS12561813 for biotransformation under anaerobic condition. The drug concentrations were measured over 9 timepoints collected between 0 and 24 hours of incubation by liquid-chromatography-coupled mass spectrometry (LC–MS); conditions: 2 µM
[11] = The drug is tested on WLS-038 corresponding to human gut metagenome with ENA study accession number: PRJEB37062 and ENA sample accession number: ERS12561745 for biotransformation under anaerobic condition. The drug concentrations were measured over 9 timepoints collected between 0 and 24 hours of incubation by liquid-chromatography-coupled mass spectrometry (LC–MS); conditions: 2 µM
[12] = human gut metagenome, 24 h, 2 µM; remark: listed apart in the source
[13] = human gut metagenome, 24 h, 2 µM; remark: listed apart in the source
[14] = human gut metagenome, 24 h, 2 µM; remark: listed apart in the source
[15] = human gut metagenome, 24 h, 2 µM; remark: listed apart in the source
[16] = human gut metagenome, 24 h, 2 µM; remark: listed apart in the source
[17] = human gut metagenome, 24 h, 2 µM; remark: listed apart in the source
[18] = The drug is tested on WLS-090 corresponding to human gut metagenome with ENA study accession number: PRJEB37062 and ENA sample accession number: ERS12561753 for biotransformation under anaerobic condition. The drug concentrations were measured over 9 timepoints collected between 0 and 24 hours of incubation by liquid-chromatography-coupled mass spectrometry (LC–MS); conditions: 2 µM
[19] = human gut metagenome, 24 h, 2 µM; remark: listed apart in the source
[20] = The drug is tested on Z-010 corresponding to metagenome with ENA study accession number: PRJEB37062 and ENA sample accession number: ERS12561810 for biotransformation under anaerobic condition. The drug concentrations were measured over 9 timepoints collected between 0 and 24 hours of incubation by liquid-chromatography-coupled mass spectrometry (LC–MS); conditions: 2 µM
Also: call rule not given here.

Structure (SMILES) | Bacterial Biotransformation [1] | Bacterial Biotransformation [2] | Bacterial Biotransformation [3] | Bacterial Biotransformation [4] | Bacterial Biotransformation [5] | Bacterial Biotransformation [6] | Bacterial Biotransformation [7] | Bacterial Biotransformation [8] | Bacterial Biotransformation [9] | Bacterial Biotransformation [10] | Bacterial Biotransformation [11] | Bacterial Biotransformation [12] | Bacterial Biotransformation [13] | Bacterial Biotransformation [14] | Bacterial Biotransformation [15] | Bacterial Biotransformation [16] | Bacterial Biotransformation [17] | Bacterial Biotransformation [18] | Bacterial Biotransformation [19] | Bacterial Biotransformation [20]
Nc1nc(N)nc(-c2cc(Cl)ccc2Cl)n1.O=C(O)/C=C\C(=O)O [IRSOGLADINE MALEATE] | Compound NOT metabolized | Compound NOT metabolized | Compound NOT metabolized | Compound NOT metabolized | Compound NOT metabolized | Compound NOT metabolized | Compound NOT metabolized | Compound NOT metabolized | Compound NOT metabolized | Compound NOT metabolized | Compound NOT metabolized | Compound NOT metabolized | Compound NOT metabolized | Compound NOT metabolized | Compound NOT metabolized | Compound metabolized | Compound NOT metabolized | Compound NOT metabolized | Compound NOT metabolized | Compound NOT metabolized
O=C(O)c1cc(/N=N/c2ccc(S(=O)(=O)Nc3ccccn3)cc2)ccc1O [SULFASALAZINE] | Compound metabolized | Compound metabolized | Compound metabolized | Compound metabolized | Compound metabolized | Compound metabolized | Compound metabolized | Compound metabolized | Compound metabolized | Compound metabolized | Compound metabolized | Compound metabolized | Compound metabolized | Compound metabolized | Compound metabolized | Compound metabolized | Compound metabolized | Compound metabolized | Compound metabolized | Compound metabolized
CC(C)NCC(O)COc1ccc(CC(N)=O)cc1 (stereo not given) [ATENOLOL] | Compound NOT metabolized | Compound metabolized | Compound NOT metabolized | Compound NOT metabolized | Compound NOT metabolized | Compound NOT metabolized | Compound NOT metabolized | Compound NOT metabolized | Compound NOT metabolized | Compound NOT metabolized | Compound NOT metabolized | Compound metabolized | Compound NOT metabolized | Compound NOT metabolized | Compound NOT metabolized | Compound metabolized | Compound NOT metabolized | Compound metabolized | Compound NOT metabolized | Compound NOT metabolized
CN(CCOc1ccc(CC2SC(=O)NC2=O)cc1)c1ccccn1.O=C(O)/C=C\C(=O)O (stereo not given) [ROSIGLITAZONE MALEATE] | Compound NOT metabolized | Compound metabolized | Compound NOT metabolized | Compound NOT metabolized | Compound metabolized | Compound metabolized | Compound NOT metabolized | Compound NOT metabolized | Compound NOT metabolized | Compound NOT metabolized | Compound NOT metabolized | Compound metabolized | Compound metabolized | Compound NOT metabolized | Compound NOT metabolized | Compound metabolized | Compound metabolized | Compound metabolized | Compound NOT metabolized | Compound NOT metabolized
C#C[C@]1(OC(C)=O)CC[C@H]2[C@@H]3CCC4=C/C(=N/O)CC[C@@H]4[C@H]3CC[C@@]21CC [NORGESTIMATE] | Compound metabolized | Compound metabolized | Compound NOT metabolized | Compound metabolized | Compound metabolized | Compound metabolized | Compound NOT metabolized | Compound metabolized | Compound NOT metabolized | Compound NOT metabolized | Compound metabolized | Compound NOT metabolized | Compound metabolized | Compound NOT metabolized | Compound metabolized | Compound metabolized | Compound metabolized | Compound metabolized | Compound NOT metabolized | Compound NOT metabolized
N=C(N)NC(=O)Cc1c(Cl)cccc1Cl [GUANFACINE] | Compound NOT metabolized | Compound NOT metabolized | Compound NOT metabolized | Compound NOT metabolized | Compound NOT metabolized | Compound NOT metabolized | Compound NOT metabolized | Compound NOT metabolized | Compound NOT metabolized | Compound NOT metabolized | Compound NOT metabolized | Compound NOT metabolized | Compound NOT metabolized | Compound NOT metabolized | Compound NOT metabolized | Compound NOT metabolized | Compound NOT metabolized | Compound NOT metabolized | Compound NOT metabolized | Compound NOT metabolized
